# In patent US7084268B1, “Carbapenem compound crystals and interjection preparations” (Eisai Co., Ltd., priority 1999, dated 2006):
# Several values for one entry are separate records, joined by “and”; a condition that tells them apart may be missing. Identical values can stand only once. Counter-ions that a name gives are not always drawn.
# Tests used:
# Type in all cases: physicochemical
# [1] = Solubility in 62.5% (v/v) aqueous organic solvents, quantification in HPLC; settings: for solubility at 30 min: aqueous organic solvent, 20 °C, aqueous with cosolvent or surfactant or cyclodextrin, thermodynamic from solid
# Procedure: The solubility of (+)-(1R,5S,6S)-6-[(R)-1-hydroxyethyl]-1-methyl-2-[(2S,4S)-2-[(3R)-pyrrolidine-3-yl-(R)-hydroxymethyl]pyrrolidine-4-yl]thio-1-carbapen-2-em-3-carboxylic acid monohydrochloride monohydrate and trihydrate in various aqueous organic solvents at a concentration of 62.5% (v/v) in water at 20° C. was determined by HPLC in the following manner.
# [2] = Color difference after degasification of vial at various pressures and replacement by nitrogen; settings: 60° C., n = 6
# Procedure: As the monohydrate, the powdery charged preparations for injection of the novel carbapenem crystals (25 mg/vial) obtained by degasification of the air in the vial at 100, 10, 1, 0.1 and 0.01 hPa (hectopascal) respectively and subsequent replacement by nitrogen according to the method in Example 2-3 (replacement by nitrogen) were stored at 60° C. for 1 or 4 weeks (N=6) and then measured for their color difference (ΔE). The oxygen concentrations in the preparations in vials degasified at 100, 10, 1, 0.1, 0.01 hPa (hectopascal) were measured by an oxygen analyzer (RO-101, Iizima Kogyo). As the trihydrate, the powdery charged preparations of the novel carbapenem hydrochloride crystals (25 mg/vial) obtained in the method in Example 1-9 (replacement by nitrogen) were degasified in the same manner, stored at 80° C. for 1 week (N=6) and then measured for their color difference (ΔE). As the control, the powdery charged preparation of the novel carbapenem hydrochloride crystals (25 mg/vial) subjected to neither degasification nor replacement by nitrogen was used.
# [3] = Effect of degasification of the air in a vial and/or replacement by nitrogen (storage of powdery charged preparations); settings: for HPLC impurity, mean / content of residual carbapenem compound, mean: N=3
# Procedure: As the monohydrate crystals, the powdery charged preparation of the novel carbapenem hydrochloride crystals (25 mg/vial) obtained in the method in Example 2-3 (replacement by nitrogen), the powdery charged preparation (25 mg/vial) subjected to replacement by oxygen in place of replacement by nitrogen in Example 2-3, and the powdery charged preparation (25 mg/vial) not subjected to replacement in Example 2-2 were stored at 60° C. for 5 days (N=3) and then measured for their color difference (ΔE), water content, powdery x-ray diffraction pattern, content of residual carbapenem and HPLC impurities. As the trihydrate crystals, the powdery charged preparation of the novel carbapenem hydrochloride crystals (25 mg/vial) obtained by the method (replacement by nitrogen) in Example 1-9 and the powdery charged preparation (25 mg/vial) not subjected to replacement in Example 1-8 were stored at 40° C. for 1 month and then measured for their color difference (ΔE), water content and content of residual carbapenem. The color difference was evaluated by a color difference meter (ZE-200, Nippondenso Co., Ltd.); the water content by a Karl-Fisher moisture meter (CA-05, Mitsubishi Kagaku Kogyo); the powdery X-ray diffraction under the method and conditions in Example 1-1 or 2-1; and the content of residual carbapenem and HPLC impurities by high performance liquid chromatography (Shimadzu Corporation). The color difference (ΔE) is a parameter indicative of a change in the color of the outward appearance of crystals, and its higher value indicates a greater coloration change than at an initial stage (just after production).
# [4] = 25 mg/vial, control (air), no replacement, stored 60° C. for 5 days
# [5] = 25 mg/vial, control (air), no replacement, stored 60° C. for 5 days, monohydrochloride monohydrate
# [6] = 25 mg/vial, gas for replacement nitrogen, stored 60° C. for 5 days
# [7] = 25 mg/vial, gas for replacement nitrogen, stored 60° C. for 5 days, monohydrochloride monohydrate
# [8] = 25 mg/vial, gas for replacement oxygen, stored 60° C. for 5 days
# [9] = 25 mg/vial, gas for replacement oxygen, stored 60° C. for 5 days, monohydrochloride monohydrate
# [10] = monohydrate powdery charged preparation, initial stage
smiles,measurement,setting,value
"C[C@@H](O)[C@H]1C(=O)N2C(C(=O)O)=C(S[C@@H]3CN[C@H]([C@H](O)[C@@H]4CCNC4)C3)[C@H](C)[C@H]12 [monohydrate, (+)-(1R,5S,6S)-6-[(R)-1-Hydroxyethyl]-1-methyl-2-[(2S,4S)-2-[(3R)-pyrrolidine-3-yl-(R)-hydroxymethyl]pyrrolidine-4-yl]thio-1-carbapen-2-em-3-carboxylic acid monohydrochloride monohydrate]",solubility,"[1]; 62.5% (v/v) diethylene glycol monoethyl ether in water, 20° C., 30 minutes, monohydrochloride monohydrate",6560 µg/mL
same,solubility at 30 min,[1]; 62.5% (v/v) 1-acetoxy-2-methyl ethane in water,4180 µg/mL
same,solubility at 30 min,[1]; 62.5% (v/v) 1-ethoxy-2-propanol in water,5060 µg/mL
same,solubility at 30 min,[1]; 62.5% (v/v) 1-methoxy-2-propanol in water,4120 µg/mL
same,solubility at 30 min,[1]; 62.5% (v/v) 2-butoxyethanol in water,13300 µg/mL
same,solubility at 30 min,[1]; 62.5% (v/v) 2-ethoxyethanol in water,6740 µg/mL
same,solubility at 30 min,[1]; 62.5% (v/v) 2-isopropoxyethanol in water,6030 µg/mL
same,solubility at 30 min,[1]; 62.5% (v/v) 2-methoxyethanol in water,5370 µg/mL
same,solubility at 30 min,[1]; 62.5% (v/v) 3-methoxy-3-methyl-1-butanol in water,5930 µg/mL
same,solubility at 30 min,[1]; 62.5% (v/v) 3-methoxybutanol in water,4390 µg/mL
same,solubility at 30 min,[1]; 62.5% (v/v) IPA (isopropyl alcohol) in water,6310 µg/mL
same,solubility at 30 min,[1]; 62.5% (v/v) acetonitrile in water,15800 µg/mL
same,solubility at 30 min,[1]; 62.5% (v/v) diethylene glycol monomethyl ether in water,3930 µg/mL
same,solubility at 30 min,[1]; 62.5% (v/v) dimethyl acetamide in water,4060 µg/mL
same,solubility at 30 min,[1]; 62.5% (v/v) dimethyl ether in water,1930 µg/mL
same,solubility at 30 min,[1]; 62.5% (v/v) dimethyl formamide in water,5030 µg/mL
same,solubility at 30 min,[1]; 62.5% (v/v) dimethyl sulfoxide in water,7500 µg/mL
same,solubility at 30 min,[1]; 62.5% (v/v) ethanol in water,6600 µg/mL
same,solubility at 30 min,[1]; 62.5% (v/v) methanol in water,10200 µg/mL
same,solubility at 30 min,[1]; 62.5% (v/v) n-propanol in water,12300 µg/mL
same,solubility at 30 min,[1]; 62.5% (v/v) t-butanol in water,8650 µg/mL
same,solubility at 30 min,[1]; 62.5% (v/v) tetrahydrofuran in water,7220 µg/mL
same,solubility at 30 min,[1]; 62.5% (v/v) triethylene glycol monomethyl ether in water,2860 µg/mL
same,color difference (ΔE),"[2]; control: neither degasification nor replacement by nitrogen, 1 week",7.37
same,color difference (ΔE),"[2]; control: neither degasification nor replacement by nitrogen, 4 weeks",14.94
same,color difference (ΔE),"[2]; vial degasified at 0.01 hPa (oxygen concentration 0.24 ± 0.03%), replaced by nitrogen, 1 week",3.11
same,color difference (ΔE),"[2]; vial degasified at 0.01 hPa (oxygen concentration 0.24 ± 0.03%), replaced by nitrogen, 4 weeks",4.91
same,color difference (ΔE),"[2]; vial degasified at 0.1 hPa (oxygen concentration 0.21 ± 0.01%), replaced by nitrogen, 1 week",2.28
same,color difference (ΔE),"[2]; vial degasified at 0.1 hPa (oxygen concentration 0.21 ± 0.01%), replaced by nitrogen, 4 weeks",4.98
same,color difference (ΔE),"[2]; vial degasified at 1 hPa (oxygen concentration 0.24 ± 0.04%), replaced by nitrogen, 1 week",2.62
same,color difference (ΔE),"[2]; vial degasified at 1 hPa (oxygen concentration 0.24 ± 0.04%), replaced by nitrogen, 4 weeks",4.51
same,color difference (ΔE),"[2]; vial degasified at 10 hPa (oxygen concentration 0.29 ± 0.08%), replaced by nitrogen, 1 week",2.40
same,color difference (ΔE),"[2]; vial degasified at 10 hPa (oxygen concentration 0.29 ± 0.08%), replaced by nitrogen, 4 weeks",5.69
same,color difference (ΔE),"[2]; vial degasified at 100 hPa (oxygen concentration 3.01 ± 1.12%), replaced by nitrogen, 1 week",2.85
same,color difference (ΔE),"[2]; vial degasified at 100 hPa (oxygen concentration 3.01 ± 1.12%), replaced by nitrogen, 4 weeks",8.02
same,powdery X-ray diffraction pattern,[3]; [4],no change
same,"HPLC impurity, mean",[3]; [4],0.63%
same,"content of residual carbapenem compound, mean",[3]; [4],98.40%
same,HPLC impurity,[3]; [5],0.62% and 0.64%
same,color difference (ΔE),[3]; [5],10.48 and 11.21 and 10.41
same,content of residual carbapenem compound,[3]; [5],98.6% and 98.1%
same,water content,[3]; [5],5.87% and 5.93%
same,powdery X-ray diffraction pattern,[3]; [6],no change
same,"HPLC impurity, mean",[3]; [6],0.63%
same,"content of residual carbapenem compound, mean",[3]; [6],98.40%
same,HPLC impurity,[3]; [7],0.63% and 0.64%
same,color difference (ΔE),[3]; [7],4.23 and 4.57 and 5.23
same,water content,[3]; [7],5.80% and 5.78% and 5.77%
same,powdery X-ray diffraction pattern,[3]; [8],no change
same,"HPLC impurity, mean",[3]; [8],0.64%
same,"content of residual carbapenem compound, mean",[3]; [8],97.80%
same,HPLC impurity,[3]; [9],0.63% and 0.64%
same,color difference (ΔE),[3]; [9],12.7 and 12.14 and 11.46
same,content of residual carbapenem compound,[3]; [9],97.5% and 98.1% and 97.8%
same,water content,[3]; [9],5.78% and 5.77% and 5.75%
same,HPLC impurity,[3]; [10],1.03%
same,water content,[3]; [10],5.99%
